# Where two headings read alike, the source gives them in different places.
# System: recombinant NL-Rluc virus (NL4-3 with Renilla Luciferase gene) in MT-2 cells
# Assay: Inhibition of HIV replication (NL-Rluc luciferase reporter virus, MT-2 cells)
# Assay type: cell-based, human immunodeficiency virus (HIV)
# Conditions: NL43, 120 h
SMILES,EC50 (read-out: Activity) [µM],EC50 (read-out: EC50 μM) [µM]
"Cc1nc2cc(-c3ccc4c(c3)CCCC4)nn2c(-c2ccc(F)cc2)c1[C@H](OC(C)(C)C)C(=O)O [Example 152, (S)-2-(tert-Butoxy)-2-(7-(4-fluorophenyl)-5-methyl-2-(5,6,7,8-tetrahydronaphthalen-2-yl)pyrazolo[1,5-a]pyrimidin-6-yl)acetic acid]",> 1,–
"Cc1ccc(-c2c([C@H](OC(C)(C)C)C(=O)O)c(C)nc3cc(-c4ccc5c(c4)CCCC5)nn23)cc1 [Example 153, (S)-2-(tert-Butoxy)-2-(5-methyl-2-(5,6,7,8-tetrahydronaphthalen-2-yl)-7-(p-tolyl)pyrazolo[1,5-a]pyrimidin-6-yl)acetic acid]",0.1 to 1,–
"Cc1nc2cc(-c3ccc4c(c3)CCCC4)nn2c(-c2ccc3c4c(ccnc24)CCO3)c1[C@H](OC(C)(C)C)C(=O)O [Example 154, (2S)-2-(tert-Butoxy)-2-(7-(2,3-dihydropyrano[4,3,2-de]quinolin-7-yl)-5-methyl-2-(5,6,7,8-tetrahydronaphthalen-2-yl)pyrazolo[1,5-a]pyrimidin-6-yl)acetic acid]",> 1,–
"Cc1nc2cc(-c3ccc4c(c3)CCCC4)nn2c(-c2ccc(Cl)cc2)c1[C@H](OC(C)(C)C)C(=O)O [Example 155, (S)-2-(tert-Butoxy)-2-(7-(4-chlorophenyl)-5-methyl-2-(5,6,7,8-tetrahydronaphthalen-2-yl)pyrazolo[1,5-a]pyrimidin-6-yl)acetic acid]",0.1 to 1,–
"Cc1ccc(-c2c([C@H](OC(C)(C)C)C(=O)O)c(C)nc3cc(-c4ccc5c(c4)CCCC5)nn23)c(Cl)c1 [Example 156, (2S)-2-(tert-Butoxy)-2-(7-(2-chloro-4-methylphenyl)-5-methyl-2-(5,6,7,8-tetrahydronaphthalen-2-yl)pyrazolo[1,5-a]pyrimidin-6-yl)acetic acid]",> 1,–
"Cc1nc2cc(-c3ccc4c(c3)CCCC4)nn2c(-c2ccc(Cl)cc2F)c1[C@H](OC(C)(C)C)C(=O)O [Example 157, (2S)-2-(tert-Butoxy)-2-(7-(4-chloro-2-fluorophenyl)-5-methyl-2-(5,6,7,8-tetrahydronaphthalen-2-yl)pyrazolo[1,5-a]pyrimidin-6-yl)acetic acid]",0.1 to 1,–
"Cc1nc2c(C)c(-c3cccc(Cl)c3)nn2c(-c2cc(F)c3c(c2C)CCCO3)c1[C@H](OC(C)(C)C)C(=O)O [Example 158, (2S)-2-(tert-Butoxy)-2-(2-(3-chlorophenyl)-7-(8-fluoro-5-methylchroman-6-yl)-3,5-dimethylpyrazolo[1,5-a]pyrimidin-6-yl)acetic acid]",0.1 to 1,–
"Cc1nc2c(C)c(-c3cccc(-c4cc(F)c5c(c4C)CCCO5)c3)nn2c(-c2cc(F)c3c(c2C)CCCO3)c1[C@H](OC(C)(C)C)C(=O)O [Example 159, (2S)-2-(tert-Butoxy)-2-(7-(8-fluoro-5-methylchroman-6-yl)-2-(3-(8-fluoro-5-methylchroman-6-yl)phenyl)-3,5-dimethylpyrazolo[1,5-a]pyrimidin-6-yl)acetic acid]",< 0.1,–
"COc1ccncc1-c1cccc(-c2nn3c(-c4cc(F)c5c(c4C)CCCO5)c([C@H](OC(C)(C)C)C(=O)O)c(C)nc3c2C)c1 [Example 160, (2S)-2-(tert-Butoxy)-2-(7-(8-fluoro-5-methylchroman-6-yl)-2-(3-(4-methoxypyridin-3-yl)phenyl)-3,5-dimethylpyrazolo[1,5-a]pyrimidin-6-yl)acetic acid]",< 0.1,0.01
"Cc1nc2c(C)c(-c3cccc(-c4ccc5c(cnn5C)c4)c3)nn2c(-c2cc(F)c3c(c2C)CCCO3)c1[C@H](OC(C)(C)C)C(=O)O [Example 161, (2S)-2-(tert-Butoxy)-2-(7-(8-fluoro-5-methylchroman-6-yl)-3,5-dimethyl-2-(3-(1-methyl-1H-indazol-5-yl)phenyl)pyrazolo[1,5-a]pyrimidin-6-yl)acetic acid]",< 0.1,–
"Cc1nc2c(C)c(-c3cccc(-c4ccccc4F)c3)nn2c(-c2cc(F)c3c(c2C)CCCO3)c1[C@H](OC(C)(C)C)C(=O)O [Example 162, (2S)-2-(tert-Butoxy)-2-(7-(8-fluoro-5-methylchroman-6-yl)-2-(2′-fluoro-[1,1′-biphenyl]-3-yl)-3,5-dimethylpyrazolo[1,5-a]pyrimidin-6-yl)acetic acid]",< 0.1,–
"Cc1nc2c(C)c(-c3ccccc3)nn2c(-c2cc(F)c3c(c2C)CCCO3)c1[C@H](OC(C)(C)C)C(=O)O [Example 163, (2S)-2-(tert-Butoxy)-2-(7-(8-fluoro-5-methylchroman-6-yl)-3,5-dimethyl-2-phenylpyrazolo[1,5-a]pyrimidin-6-yl)acetic acid]",< 0.1,0.2
"Cc1nc2c(C)c(-c3cccc(-c4cccc(F)c4)c3)nn2c(-c2cc(F)c3c(c2C)CCCO3)c1[C@H](OC(C)(C)C)C(=O)O [Example 164, (2S)-2-(tert-Butoxy)-2-(7-(8-fluoro-5-methylchroman-6-yl)-2-(3′-fluoro-[1,1′-biphenyl]-3-yl)-3,5-dimethylpyrazolo[1,5-a]pyrimidin-6-yl)acetic acid]",< 0.1,–
"Cc1cc(-c2cccc(-c3cc4nc(C)c([C@H](OC(C)(C)C)C(=O)O)c(-c5cc(F)c6c(c5C)CCCO6)n4n3)c2)ccc1F [Example 165, (2S)-2-(tert-Butoxy)-2-(2-(4′-fluoro-3′-methyl-[1,1′-biphenyl]-3-yl)-7-(8-fluoro-5-methylchroman-6-yl)-5-methylpyrazolo[1,5-a]pyrimidin-6-yl)acetic acid]",< 0.1,–
"Cc1cc(F)ccc1-c1cccc(-c2cc3nc(C)c([C@H](OC(C)(C)C)C(=O)O)c(-c4cc(F)c5c(c4C)CCCO5)n3n2)c1 [Example 166, (2S)-2-(tert-Butoxy)-2-(2-(4′-fluoro-2′-methyl-[1,1′-biphenyl]-3-yl)-7-(8-fluoro-5-methylchroman-6-yl)-5-methylpyrazolo[1,5-a]pyrimidin-6-yl)acetic acid]",< 0.1,–
"Cc1ncccc1-c1cccc(-c2cc3nc(C)c([C@H](OC(C)(C)C)C(=O)O)c(-c4cc(F)c5c(c4C)CCCO5)n3n2)c1 [Example 167, (2S)-2-(tert-Butoxy)-2-(7-(8-fluoro-5-methylchroman-6-yl)-5-methyl-2-(3-(2-methylpyridin-3-yl)phenyl)pyrazolo[1,5-a]pyrimidin-6-yl)acetic acid]",< 0.1,–
"COc1cc(-c2cccc(-c3cc4nc(C)c([C@H](OC(C)(C)C)C(=O)O)c(-c5cc(F)c6c(c5C)CCCO6)n4n3)c2)ccn1 [Example 168, (2S)-2-(tert-Butoxy)-2-(7-(8-fluoro-5-methylchroman-6-yl)-2-(3-(2-methoxypyridin-4-yl)phenyl)-5-methylpyrazolo[1,5-a]pyrimidin-6-yl)acetic acid]",< 0.1,–
"COc1ccc(-c2cccc(-c3cc4nc(C)c([C@H](OC(C)(C)C)C(=O)O)c(-c5cc(F)c6c(c5C)CCCO6)n4n3)c2)cn1 [Example 169, (2S)-2-(tert-Butoxy)-2-(7-(8-fluoro-5-methylchroman-6-yl)-2-(3-(6-methoxypyridin-3-yl)phenyl)-5-methylpyrazolo[1,5-a]pyrimidin-6-yl)acetic acid]",< 0.1,–
"Cc1cc(-c2cccc(-c3cc4nc(C)c([C@H](OC(C)(C)C)C(=O)O)c(-c5cc(F)c6c(c5C)CCCO6)n4n3)c2)ccn1 [Example 170, (2S)-2-(tert-Butoxy)-2-(7-(8-fluoro-5-methylchroman-6-yl)-5-methyl-2-(3-(2-methylpyridin-4-yl)phenyl)pyrazolo[1,5-a]pyrimidin-6-yl)acetic acid]",< 0.1,–
"Cc1nc2cc(-c3cccc(-c4cncc(F)c4)c3)nn2c(-c2cc(F)c3c(c2C)CCCO3)c1[C@H](OC(C)(C)C)C(=O)O [Example 171, (2S)-2-(tert-Butoxy)-2-(7-(8-fluoro-5-methylchroman-6-yl)-2-(3-(5-fluoropyridin-3-yl)phenyl)-5-methylpyrazolo[1,5-a]pyrimidin-6-yl)acetic acid]",< 0.1,–
"Cc1nc2cc(-c3cccc(-c4cnc5ccccc5c4)c3)nn2c(-c2cc(F)c3c(c2C)CCCO3)c1[C@H](OC(C)(C)C)C(=O)O [Example 172, (2S)-2-(tert-Butoxy)-2-(7-(8-fluoro-5-methylchroman-6-yl)-5-methyl-2-(3-(quinolin-3-yl)phenyl)pyrazolo[1,5-a]pyrimidin-6-yl)acetic acid]",< 0.1,–
"Cc1nc2cc(-c3cccc(-c4ccccc4C(F)(F)F)c3)nn2c(-c2cc(F)c3c(c2C)CCCO3)c1[C@H](OC(C)(C)C)C(=O)O [Example 173, (2S)-2-(tert-Butoxy)-2-(7-(8-fluoro-5-methylchroman-6-yl)-5-methyl-2-(2′-(trifluoromethyl)-[1,1′-biphenyl]-3-yl)pyrazolo[1,5-a]pyrimidin-6-yl)acetic acid]",< 0.1,–
"Cc1nc2cc(-c3cccc(-c4cnn(-c5ccccc5)c4C)c3)nn2c(-c2cc(F)c3c(c2C)CCCO3)c1[C@H](OC(C)(C)C)C(=O)O [Example 174, (2S)-2-(tert-Butoxy)-2-(7-(8-fluoro-5-methylchroman-6-yl)-5-methyl-2-(3-(5-methyl-1-phenyl-1H-pyrazol-4-yl)phenyl)pyrazolo[1,5-a]pyrimidin-6-yl)acetic acid]",< 0.1,–
"Cc1nc2cc(-c3cccc(-c4ccnc(N5CCN(C)CC5)c4)c3)nn2c(-c2cc(F)c3c(c2C)CCCO3)c1[C@H](OC(C)(C)C)C(=O)O [Example 175, (2S)-2-(tert-Butoxy)-2-(7-(8-fluoro-5-methylchroman-6-yl)-5-methyl-2-(3-(2-(4-methylpiperazin-1-yl)pyridin-4-yl)phenyl)pyrazolo[1,5-a]pyrimidin-6-yl)acetic acid]",< 0.1,–

# Source: patent US8633200B2, “Inhibitors of human immunodeficiency virus replication” (priority 2010, dated 2014)
